Data as given in US12551461B2, “Compositions of triglycerides and uses thereof” (Ultragenyx Pharmaceutical Inc., priority 2013, dated 2026).
“Also recorded” adds a separate entry of the source.

Columns and labels:
[1] = Storage stability of triheptanoin oil; format: physicochemical; conditions: stored at room temperature and protected from light
From the text: In some embodiments, the triheptanoin oil as described herein is a colorless oil of low viscosity and is odorless and tasteless. Triheptanoin oil as described herein is typically stored at room temperature and protected from light, and its stability can exceed 24 months under such conditions.

[2] = test system: mini-pigs; assay: Multiple dose study, vomiting and gastric distress observations
[3] = Multiple dose study, metabolite PK profiles Day 1 and Day 7
[4] = Single dose study, PK profile of triheptanoin and metabolites; format: in vivo; conditions: single oral gavage dose, Day 1, mini-pigs
Description: Single dose study of each arm with full pharmacokinetics (PK) profile through 48 hours post dose was performed to determined when metabolites return to baseline (one week washout between each arm) as well as if acute release of gastrin and cholesystokinin (CCK) hormones cause spasmodic stomach contractions. Blood samples were collected from each arm 0-90 min plus anytime outside this window if gastric distress observed.
More specifically, animals (n=3/sex) were fasted prior to dose and fed 4 hrs post dose. Blood samples for PK analysis of triheptanoin and metabolites were collected pre-dose through 48 hrs post dose.
In FIGS. 1-21, animals were administered a single oral gavage dose level of a triheptanoin oil sample (i.e., the oil) or exemplary solid samples comprising triheptanoin oil in accordance with the present invention. The two exemplary solid compositions comprise 1) 60%:20%:20% of triheptanoin oil:Cab-O-Sil:cellulose acetate (i.e., the Powder-ER); and 2) 80%:20% of triheptanoin oil:Cab-O-Sil (i.e., the Powder), respectively.

Which stability [1] does the source give for `CCCCCCC(=O)OCC(COC(=O)CCCCCC)OC(=O)CCCCCC` [triheptanoin oil, propane-1,2,3-triyl triheptanoate] here?
Its stability is “exceed 24 months”.

What about the “vomiting or gastric distress observed” value [2] of the same compound?
Its value is “Day 1: Animal #6501 vomited ˜3 hours post dose; also recorded: Day 1: Animal #6516 vomited ˜3 hours post dose; also recorded: Day 5: Animal #6509 gastric distressed observed”.

And the Propionylglycine levels ([3]; Day 1 and Day 7, mini-pigs)?
Its Propionylglycine levels is “essentially zero”.

And the pimelic acid levels ([3]; Day 1 and Day 7, mini-pigs)?
The pimelic acid levels was “highest amount of pimelic acid”.

And the “conversion of triheptanoin to C7” value ([3]; mini-pigs)?
The value was “All triheptanoin oil was converted to C7”.

What about the triheptanoin levels ([3]; mini-pigs) of the same compound?
The triheptanoin levels was “no triheptanoin values”.

And the “levels of ketones (C4-OH, C5-OH)” value [4]?
Its value is “comparable levels of ketones”.
